≈ marks a conversion by molar mass, not a printed value.
Key:
[1] = Chemical stability of the compound at pH 1 at 10 uM after 18 hrs incubation at 65 degC; assay type: physicochemical; settings: buffer
[2] = Chemical stability of the compound at pH 8 at 10 uM after 18 hrs incubation at 65 degC; assay type: physicochemical; settings: buffer
[3] = Chemical stability of the compound at pH 10 at 10 uM after 18 hrs incubation at 65 degC; assay type: physicochemical; settings: buffer
[4] = Chemical stability of the compound at pH 4 at 10 uM after 18 hrs incubation at 65 degC; assay type: physicochemical; settings: buffer
physchem [5] = settings: aqueous phosphate buffer, pH 7.4
[6] = Chemical stability of the compound at pH 6 at 10 uM after 18 hrs incubation at 65 degC; assay type: physicochemical; settings: buffer
in vitro = settings: human, liver microsomes
[7] = target: Voltage-gated inwardly rectifying potassium channel KCNH2 (Homo sapiens, UniProt Q12809); test: Inhibition of human ERG
Chain of Voltage-gated inwardly rectifying potassium channel KCNH2 (Q12809 whole entry): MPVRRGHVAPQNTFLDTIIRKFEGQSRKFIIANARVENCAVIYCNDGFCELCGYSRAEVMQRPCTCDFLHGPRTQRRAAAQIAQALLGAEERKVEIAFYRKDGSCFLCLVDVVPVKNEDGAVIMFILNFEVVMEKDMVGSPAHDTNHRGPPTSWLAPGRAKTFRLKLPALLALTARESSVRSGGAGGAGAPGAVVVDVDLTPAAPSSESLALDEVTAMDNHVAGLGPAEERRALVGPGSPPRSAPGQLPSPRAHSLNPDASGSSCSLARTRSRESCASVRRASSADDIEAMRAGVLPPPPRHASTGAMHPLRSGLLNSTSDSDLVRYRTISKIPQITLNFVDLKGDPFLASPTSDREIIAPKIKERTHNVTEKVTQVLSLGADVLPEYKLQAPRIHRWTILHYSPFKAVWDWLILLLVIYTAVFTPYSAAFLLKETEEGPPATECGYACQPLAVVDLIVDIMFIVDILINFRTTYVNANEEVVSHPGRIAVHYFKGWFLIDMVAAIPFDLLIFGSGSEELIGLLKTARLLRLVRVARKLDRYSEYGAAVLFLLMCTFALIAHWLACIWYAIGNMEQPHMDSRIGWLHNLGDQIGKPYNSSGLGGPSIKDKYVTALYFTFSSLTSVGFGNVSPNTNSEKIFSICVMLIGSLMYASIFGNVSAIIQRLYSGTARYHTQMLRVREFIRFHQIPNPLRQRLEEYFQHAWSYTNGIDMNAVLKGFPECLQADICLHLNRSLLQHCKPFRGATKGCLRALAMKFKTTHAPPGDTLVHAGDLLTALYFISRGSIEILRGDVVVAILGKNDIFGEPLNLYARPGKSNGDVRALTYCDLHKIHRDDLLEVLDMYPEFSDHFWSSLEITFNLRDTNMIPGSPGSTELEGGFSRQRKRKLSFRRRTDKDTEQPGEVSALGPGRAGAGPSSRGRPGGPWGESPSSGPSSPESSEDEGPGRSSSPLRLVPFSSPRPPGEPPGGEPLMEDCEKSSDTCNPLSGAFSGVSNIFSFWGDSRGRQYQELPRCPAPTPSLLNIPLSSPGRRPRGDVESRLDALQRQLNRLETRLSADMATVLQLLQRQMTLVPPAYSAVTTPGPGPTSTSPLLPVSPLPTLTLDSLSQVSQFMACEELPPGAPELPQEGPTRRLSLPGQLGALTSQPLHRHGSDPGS

Cytochrome P450 2D6 = Cytochrome P450 2D6 (Homo sapiens, UniProt P10635); test: Inhibition of CYP2D6 (unknown origin); assay type: ADME
Chain of Cytochrome P450 2D6 (P10635 whole entry): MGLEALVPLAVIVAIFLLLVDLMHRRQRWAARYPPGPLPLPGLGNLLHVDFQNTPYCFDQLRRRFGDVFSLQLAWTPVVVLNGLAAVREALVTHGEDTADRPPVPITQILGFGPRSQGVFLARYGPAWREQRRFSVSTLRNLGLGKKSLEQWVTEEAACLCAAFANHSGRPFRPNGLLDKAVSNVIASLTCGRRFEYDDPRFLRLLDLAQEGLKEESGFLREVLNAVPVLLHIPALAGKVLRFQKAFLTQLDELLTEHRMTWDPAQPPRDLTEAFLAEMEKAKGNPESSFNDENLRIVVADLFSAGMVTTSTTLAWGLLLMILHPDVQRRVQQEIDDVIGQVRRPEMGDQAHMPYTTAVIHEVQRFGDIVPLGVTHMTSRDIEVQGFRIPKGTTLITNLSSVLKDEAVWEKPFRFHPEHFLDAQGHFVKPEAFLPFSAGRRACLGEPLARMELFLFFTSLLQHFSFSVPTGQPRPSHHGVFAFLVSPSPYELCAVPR

Cytochrome P450 2C9 = Cytochrome P450 2C9 (Homo sapiens, UniProt P11712); test: Inhibition of CYP2C9 (unknown origin); assay type: ADME
Chain of Cytochrome P450 2C9 (P11712 whole entry): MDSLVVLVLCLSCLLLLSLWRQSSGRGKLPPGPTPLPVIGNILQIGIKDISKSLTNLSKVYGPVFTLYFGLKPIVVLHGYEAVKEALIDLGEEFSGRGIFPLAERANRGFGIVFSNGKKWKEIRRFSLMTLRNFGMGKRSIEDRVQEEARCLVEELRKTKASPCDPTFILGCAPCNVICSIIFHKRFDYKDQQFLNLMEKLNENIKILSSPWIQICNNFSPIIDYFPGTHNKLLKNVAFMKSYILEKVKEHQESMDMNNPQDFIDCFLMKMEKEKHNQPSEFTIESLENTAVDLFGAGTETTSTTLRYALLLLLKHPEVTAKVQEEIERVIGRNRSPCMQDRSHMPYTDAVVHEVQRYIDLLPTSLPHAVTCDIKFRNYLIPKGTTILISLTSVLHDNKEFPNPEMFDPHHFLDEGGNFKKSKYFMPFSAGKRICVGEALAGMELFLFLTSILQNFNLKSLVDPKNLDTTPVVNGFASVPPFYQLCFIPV

Cytochrome P450 1A2 = target: T1, Cytochrome P450 1A2 (Homo sapiens, UniProt P05177); test: Inhibition of CYP1A2 (unknown origin); assay type: ADME
T1 sequence (P05177 whole entry): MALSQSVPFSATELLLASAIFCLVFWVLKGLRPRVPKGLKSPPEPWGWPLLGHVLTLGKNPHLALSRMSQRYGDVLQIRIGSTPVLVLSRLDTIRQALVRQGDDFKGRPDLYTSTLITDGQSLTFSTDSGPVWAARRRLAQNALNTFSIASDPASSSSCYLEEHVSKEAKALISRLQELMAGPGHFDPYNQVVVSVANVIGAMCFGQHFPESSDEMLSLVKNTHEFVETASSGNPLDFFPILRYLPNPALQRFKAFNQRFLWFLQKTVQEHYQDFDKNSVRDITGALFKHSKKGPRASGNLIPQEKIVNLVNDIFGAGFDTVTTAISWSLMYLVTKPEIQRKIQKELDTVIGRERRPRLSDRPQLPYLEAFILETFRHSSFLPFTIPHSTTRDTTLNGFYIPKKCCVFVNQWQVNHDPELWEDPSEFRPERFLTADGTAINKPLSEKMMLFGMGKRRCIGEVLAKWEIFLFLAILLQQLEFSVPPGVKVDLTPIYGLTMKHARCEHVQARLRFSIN

Cytochrome P450 3A4 = Cytochrome P450 3A4 (Homo sapiens, UniProt P08684); test: Inhibition of CYP3A4 (unknown origin); assay type: ADME
Chain of Cytochrome P450 3A4 (P08684 whole entry): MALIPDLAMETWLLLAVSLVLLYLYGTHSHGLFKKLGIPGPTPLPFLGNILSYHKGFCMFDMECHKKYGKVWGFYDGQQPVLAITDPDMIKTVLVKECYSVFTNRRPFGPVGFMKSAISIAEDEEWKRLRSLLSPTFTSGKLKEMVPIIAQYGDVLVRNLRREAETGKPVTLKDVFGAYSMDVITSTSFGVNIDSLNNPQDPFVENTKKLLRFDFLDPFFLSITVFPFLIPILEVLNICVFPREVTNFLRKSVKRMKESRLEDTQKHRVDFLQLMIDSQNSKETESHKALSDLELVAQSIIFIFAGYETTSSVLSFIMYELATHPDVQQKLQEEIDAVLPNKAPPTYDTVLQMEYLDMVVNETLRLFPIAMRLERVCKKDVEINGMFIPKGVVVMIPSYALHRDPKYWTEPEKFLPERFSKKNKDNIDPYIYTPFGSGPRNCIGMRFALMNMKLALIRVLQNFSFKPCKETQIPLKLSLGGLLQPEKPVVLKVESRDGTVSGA

Cytochrome P450 2C19 = Cytochrome P450 2C19 (Homo sapiens, UniProt P33261); test: Inhibition of CYP2C19 (unknown origin); assay type: ADME
Chain of Cytochrome P450 2C19 (P33261 whole entry): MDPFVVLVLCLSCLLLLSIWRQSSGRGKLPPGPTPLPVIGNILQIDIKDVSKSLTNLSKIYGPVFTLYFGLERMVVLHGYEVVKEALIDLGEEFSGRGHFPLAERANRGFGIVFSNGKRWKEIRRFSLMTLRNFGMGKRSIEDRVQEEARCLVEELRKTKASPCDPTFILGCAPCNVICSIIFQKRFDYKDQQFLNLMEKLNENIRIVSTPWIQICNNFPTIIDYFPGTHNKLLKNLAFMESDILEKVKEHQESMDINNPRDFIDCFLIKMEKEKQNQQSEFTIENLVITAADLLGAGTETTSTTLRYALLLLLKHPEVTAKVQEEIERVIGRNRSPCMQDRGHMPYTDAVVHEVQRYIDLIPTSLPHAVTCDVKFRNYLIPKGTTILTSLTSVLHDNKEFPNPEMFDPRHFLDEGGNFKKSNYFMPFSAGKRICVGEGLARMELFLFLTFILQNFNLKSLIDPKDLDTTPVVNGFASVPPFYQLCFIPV

physchem [8] = settings: octanol/phosphate buffer, pH 7.4
[9] = target: T2, Glucose-dependent insulinotropic receptor (Homo sapiens, UniProt Q8TDV5); test: Agonist activity at human GPR119 transfected in HEK293 cells assessed as cAMP accumulation after 45 mins incubation by HTRF assay; assay type: functional, cell-based
T2 sequence (Q8TDV5 whole entry): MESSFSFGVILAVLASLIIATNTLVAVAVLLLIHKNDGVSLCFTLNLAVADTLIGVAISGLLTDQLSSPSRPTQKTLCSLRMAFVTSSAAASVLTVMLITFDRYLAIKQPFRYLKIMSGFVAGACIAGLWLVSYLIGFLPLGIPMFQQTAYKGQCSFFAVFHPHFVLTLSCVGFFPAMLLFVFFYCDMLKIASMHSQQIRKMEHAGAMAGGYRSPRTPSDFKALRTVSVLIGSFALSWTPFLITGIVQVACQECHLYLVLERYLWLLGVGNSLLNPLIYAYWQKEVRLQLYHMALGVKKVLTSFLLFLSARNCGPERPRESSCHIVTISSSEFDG

[10] = target: T3, Glucose-dependent insulinotropic receptor (Mus musculus, UniProt Q7TQP3); test: Agonist activity at mouse GPR119 transfected in HEK293 cells assessed as cAMP accumulation after 45 mins incubation by HTRF assay; assay type: functional, cell-based
T3 sequence (Q7TQP3 whole entry): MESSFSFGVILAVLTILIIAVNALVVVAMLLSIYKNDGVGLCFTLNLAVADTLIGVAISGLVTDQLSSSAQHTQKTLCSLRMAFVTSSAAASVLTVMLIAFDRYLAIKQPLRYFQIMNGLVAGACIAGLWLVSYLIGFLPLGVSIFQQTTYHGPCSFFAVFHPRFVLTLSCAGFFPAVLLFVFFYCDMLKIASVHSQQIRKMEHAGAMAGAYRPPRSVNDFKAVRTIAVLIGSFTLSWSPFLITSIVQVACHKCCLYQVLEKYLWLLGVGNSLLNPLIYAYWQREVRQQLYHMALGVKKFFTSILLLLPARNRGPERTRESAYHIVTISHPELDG

[11] = Apparent permeability across apical to basolateral side of human Caco2 cells; assay type: ADME, cell-based; settings: Caco-2
[12] = Apparent permeability across basolateral to apical side of human Caco2 cells; assay type: ADME, cell-based; settings: Caco-2
[13] = Fraction unbound in mouse plasma; assay type: ADME, cell-free
[14] = Fraction unbound in rat plasma; assay type: ADME, cell-free

solubility at 24 h (physchem [5]) [µM] | microsomal CLint (in vitro) [µL/min/mg] | logD (physchem [8]) | EC50 [9] [µM] | EC50 [10] [µM] | Compound | further results
0.03 (≈ 0.0135 µg/mL) |  |  |  |  | CC(C)(C)OC(=O)N1CCN(c2ncc(OCc3ccc(S(C)(=O)=O)cc3)cn2)CC1 | half-life at 10 µM [1]: < 1.8 h; half-life at 10 µM [2]: 2.64 h; half-life at 10 µM [3]: < 0.144 h; half-life at 10 µM [4]: 1.44 h; half-life at 10 µM [6]: 2.88 h
 | 43 |  |  |  | C[C@@H]1CN(C(=O)OC(C)(C)C)CCN1c1ncc(OCc2ccncc2C#N)cn1 | 
6 (≈ 2.52 µg/mL) | 23 |  |  |  | CC(C)c1nc(N2CCN(c3ncc(OCc4ccncc4C#N)cn3)[C@H](C)C2)no1 | INH [7]: 10 µM; INH (Cytochrome P450 2D6): > 25 µM; INH (Cytochrome P450 2C9): > 25 µM; INH (Cytochrome P450 1A2): > 25 µM; INH (Cytochrome P450 3A4): > 25 µM; INH (Cytochrome P450 2C19): > 25 µM
 |  |  |  |  | C[C@@H]1CN(c2nnc(C(F)(F)F)o2)CCN1c1ncc(OCc2ccncc2C#N)cn1 | half-life at 10 µM [1]: 10.8 h; half-life at 10 µM [2]: > 240 h; half-life at 10 µM [3]: 13.4 h; half-life at 10 µM [4]: > 240 h; half-life at 10 µM [6]: > 240 h
59 (≈ 26.5 µg/mL) | 43 | 3 | 0.0631 | 0.1 | C[C@@H]1CN(c2noc(C3(C)COC3)n2)CCN1c1ncc(OCc2ccncc2C#N)cn1 | 
30 (≈ 13.9 µg/mL) | 26 | 2.3 | 0.1 | 0.631 | C[C@@H]1CN(c2noc(C3COCCO3)n2)CCN1c1ncc(OCc2ccncc2C#N)cn1 (some centres undefined) | 
8 (≈ 3.49 µg/mL) | 14 | 2.4 | 0.631 | 0.631 | C[C@@H]1CN(c2noc(C(C)(C)O)n2)CCN1c1ncc(OCc2ccncc2C#N)cn1 | 
34 (≈ 16.7 µg/mL) | 107 | 3.1 |  |  | C[C@@H]1CN(C(=O)OC2(C(F)(F)F)CCOC2)CCN1c1ncc(OCc2ccncc2C#N)cn1 (some centres undefined) | 
110 (≈ 52.6 µg/mL) | 44 | 2.5 | 0.02 | 0.158 | C[C@@H]1CN(C(=O)OC2(C(F)(F)F)COC2)CCN1c1ncc(OCc2ccncc2C#N)cn1 | half-life at 10 µM [1]: 9.84 h; INH [7]: 12 µM; Papp A→B [11]: 160 nm/s; Papp B→A [12]: 90 nm/s; INH (Cytochrome P450 2D6): > 25 µM; fraction unbound [13]: 0.081; INH (Cytochrome P450 2C9): > 25 µM; fraction unbound [14]: 0.047; half-life at 10 µM [2]: > 240 h; INH (Cytochrome P450 1A2): > 25 µM; half-life at 10 µM [3]: 0.96 h; INH (Cytochrome P450 3A4): > 25 µM; half-life at 10 µM [4]: > 240 h; INH (Cytochrome P450 2C19): > 25 µM; half-life at 10 µM [6]: > 240 h
 | 308 |  | 0.2 | 0.501 | CC(C)C1(OC(=O)N2CCN(c3ncc(OCc4ccncc4C#N)cn3)[C@H](C)C2)COC1 | 
> 860 | 23 |  | 0.2 | 0.631 | C[C@@H]1CN(C(=O)OC2(C)COC2)CCN1c1ncc(OCc2ccncc2C#N)cn1 | 
110 (≈ 48.2 µg/mL) | 37 | 2.2 | 0.631 | > 7.94 | C[C@@H]1CN(C(=O)OC2CCOCC2)CCN1c1ncc(OCc2ccncc2C#N)cn1 | 
> 2200 | 5 | 1.6 |  |  | C[C@@H]1CN(C(=O)OC2COC2)CCN1c1ncc(OCc2ccncc2C#N)cn1 | 
180 (≈ 73.9 µg/mL) |  |  |  |  | N#Cc1cnccc1COc1cnc(N2CCN(C(=O)OC3CCOC3)CC2)nc1 (racemic) | 
